The values that follow are results of earlier work, collected in patent publication US5047532A, “Isolation and elucidation of Cephalostatins 5 and 6” (Arizona Board of Regents, acting on behalf of Arizona State …, priority 1989, dated 1991).

This data set has as its system murine P388 lymphocytic leukemia (PS cell line). To be noted: Pettit et al, J. Chem. Soc. Chem. Commun. 85 (1988).

In the case of `C[C@@H]1[C@]2(O[C@H]3C=C4[C@@H]5CC[C@H]6Cc7nc8c(nc7C[C@]6(C)[C@H]5C[C@@H](O)[C@]4(C)[C@]31O)C[C@@H]1CC[C@H]3C4=CC[C@@H]5[C@H](C)[C@@]6(OC[C@]45C(=O)C[C@@H]3[C@@]1(C)C8)OC(C)(C)C[C@H]6O)O[C@](C)(CO)C[C@H]2O` [Cephalostatin 1], the “murine P388 lymphocytic leukemia (PS system) cell growth inhibition” value is reported as “cell growth inhibitor”.
